In patent publication US20130280252A1, “METHOD FOR SELECTING PATIENT TO BE GIVEN DRUG FOR TREATING SEPTICEMIA” (MOCHIDA PHARMACEUTICAL CO., LTD., priority 2011, published 2013):
Entries after “also recorded” stand apart in the source; their conditions may differ. Structures can show the parent of a compound that is named as a salt. Where two headings read alike, the source gives them in different places.

Assays:
[1] = test system: severe septic patients; assay: Human clinical test of E5564 in severe septic patients; assay type: in vivo; settings: patients meeting at least three SIRS criteria and sCD14-ST equal to or greater than cut-off
Protocol: (§1) According to one example of the patient selection standards, E5564 is administered to a patient who meets at least three items of the SIRS diagnostic criteria to [4] and whose sCD14-ST concentration is equal to or greater than the cut-off value. Addition of the sCD14-ST concentration to the indexes used in setting the patient selection standards enables establishment of the patient selection standards that suit the action mechanism of E5564 and thus permits further improvement in E5564 efficacy than when the patient selection standards are set using only the physiological conditions as indexes.

[2] = test system: severe septic patients; settings: high-dosage group; mortality risk 20% to 80% by APACHE II Score; cited from earlier work
[3] = test system: rabbit CLP model; assay: Rabbit CLP model with E5564 (Example 3-1); assay type: in vivo; settings: 3 mg/kg to 10 mg/kg; 1 and 5 hours or 2 and 6 hours after surgery
Protocol: A rabbit CLP model is prepared as in Example 1. The E5564 administration timing is set to 1 hour and 5 hours after surgery or 2 hours and 6 hours after surgery and, as in Example 1, the sCD14-ST concentration in the blood at the time the therapeutic agent is administered is later checked with reference to the blood sCD14-ST concentration transition data. The dosage of E5564 is 3 mg/kg to 10 mg/kg. The body temperature and the leukocyte count of the rabbits are measured with time and used as indexes of the physiological conditions.

[4] = test system: severe septic patients; settings: severe sepsis with shock or respiratory failure, cited from earlier work
[5] = test system: rabbit CLP model; assay: Rabbit CLP model with Resatorvid (Example 2-1); assay type: in vivo; settings: 3 mg/kg to 10 mg/kg; 1 and 5 hours or 2 and 6 hours after surgery
Protocol: A rabbit CLP model is prepared as in Example 1. The Resatorvid administration timing is set to 1 hour and 5 hours after surgery or 2 hours and 6 hours after surgery and, as in Example 1, the blood sCD14-ST concentration at the time the therapeutic agent is administered is later checked with reference to the blood sCD14-ST concentration transition data. The dosage of Resatorvid is 3 mg/kg to 10 mg/kg. The body temperature and the leukocyte count of the rabbits are measured with time and used as indexes of the physiological conditions.

[6] = test system: severe septic patients; assay: Human clinical test of Resatorvid in severe septic patients; assay type: in vivo; settings: patients meeting at least three SIRS criteria and sCD14-ST equal to or greater than cut-off
Protocol: The specific standards used for selection of patients are as follows: Severe sepsis meets at least three items of the SIRS diagnostic criteria to [4], and the patient has or is suspected to have an infection requiring treatment with antibiotics. Septic shock needs a vasopressor to maintain a systolic blood pressure of at least 90 mmHg even under an appropriate body fluid management.
as §1, with “Resatorvid” for “E5564”, “enables” for “permits”

[7] = test system: rabbit CLP model; assay: Resatorvid-administered rabbit CLP model (Example 4); assay type: in vivo
Protocol: Two Resatorvid-administered groups were set with different administration timings. Ten mg/kg of Resatorvid was intravenously administered at timings of 1 hour and 5 hours after surgery to one group (hereinafter referred to as first-hour administered group) and 3 hours and 7 hours after surgery to the other group (hereinafter referred to as third-hour administered group). A group not to be administered Resatorvid (hereinafter referred to as control group) was administered a 10% aqueous solution of cyclodextrin, a Resatorvid solvent, 1 hour and 5 hours after surgery. Each of the groups consisted of 10 individuals; survival was checked until 48 hours after surgery. The platelet count and the leukocyte count were measured until 24 hours after surgery.

[8] = test system: cecal ligation and puncture-induced peritonitis rabbit model; settings: CLP-induced peritonitis rabbit model; cited from earlier work
[9] = test system: human vascular endothelial cell; settings: cited from earlier work
[10] = test system: LPS-induced sepsis rabbit model; settings: cited from earlier work
[11] = test system: cecal ligation and puncture-induced peritonitis rabbit model (rabbit CLP model); assay: Rabbit CLP sepsis model, F1024S-D2(3) administered (Example 1); assay type: in vivo; settings: for Survival time: 10 mg/kg intravenously two hours after surgery
Protocol: A cecal ligation and puncture-induced peritonitis rabbit model (rabbit CLP model; CLP for cecal ligation and puncture) was used as the sepsis model to verify the improvement in efficacy of the therapeutic agent for sepsis when a patient to be administered the therapeutic agent for sepsis (F1024S-D2(3)) was selected using the sCD14-ST concentration as index. The rabbit CLP model was prepared using male rabbits, New Zealand white, each weighing 1.5 kg to 1.99 kg on arrival (Kitayama Labes Co., Ltd.), which had their cecum punctured under anesthesia at two places to make holes each measuring 2 cm to release the cecal contents into the peritoneal cavity according to the method described by Keith A et al (Journal of Surgical Research, Vol. 29, 189 (1980)). In order to stabilize the postsurgical state, all the operated individuals were intravenously administered 60 mg/kg of Shiomarin (Latamoxef Sodium for administration by injection, Shionogi & Co., Ltd.) two hours after surgery.
Blood was sampled at intervals before and after surgery to measure the sCD14-ST concentrations in the blood. The sCD14-ST concentrations in the blood were measured by the method described in Example 3 in WO2009/142303. In this model, the pathology progresses within several hours, resulting in death within 7 to 8 hours after surgery in the earliest cases. Because the measured values of the sCD14-ST concentration in the blood can only be known five to six hours after blood sampling, administering the therapeutic agent only after checking the results is belated. Therefore, the administration timing of the therapeutic agent was set to two hours after surgery, and the blood sCD14-ST concentration at the time when the therapeutic agent was administered was later checked with reference to blood sCD14-ST concentration transition data. Using the respective sCD14-ST concentrations in the blood before surgery of the individuals as normal values, twice the normal values were set as the respective cut-off values. Thus, the survival rates of the cases where the sCD14-ST concentrations in the blood were at least twice the normal values at the time of administration of the therapeutic agent were compared with that of the control cases (see Table 1). The therapeutic agent-administered cases were intravenously administered 10 mg/kg of F1024S-D2(3). The control cases were intravenously administered 10 mg/kg of human immunoglobulin (hIg) in lieu of F1024S-D2(3).
The transition of the sCD14-ST concentration in the blood reflects the severity of sepsis.

For `CCCCCC/C=C\CCCCCCCCCC(=O)N[C@H]1[C@H](OC[C@H]2O[C@H](OP(=O)(O)O)[C@H](NC(=O)CC(=O)CCCCCCCCCCC)[C@@H](OCCCCCCCCCC)[C@@H]2O)O[C@H](COC)[C@@H](OP(=O)(O)O)[C@@H]1OCC[C@@H](CCCCCCC)OC` [E5564, α-D-Glucopyranose, 3-O-decyl-2-deoxy-6-O-[2-deoxy-3-O-[(3R)-3-methoxydecyl]-6-O-methyl-2-[[(11Z)-1-oxo-11-octadecenyl]amino]-4-O-phosphono-β-D-glucopyranosyl]-2-[(1,3-dioxotetradecyl)amino]-1-(dihydrogen phosphate), tetrasodium salt], the “Efficacy when patient selection standards use sCD14-ST concentration as index” value [1] is listed as “improvement in E5564 efficacy can be observed”, the Mortality rate [2] is listed as “a tendency to reduce the mortality rate was observed in a high-dosage group, but it was of no statistic significance” and the “Efficacy when sCD14-ST concentration is used as index” value [3] is listed as “reveals improvement in the efficacy”.

In the case of `CCOC(=O)C1=CCCC[C@H]1S(=O)(=O)Nc1ccc(F)cc1Cl` [Resatorvid, ethyl (6R)-6-[N-(2-chloro-4-fluorophenyl)sulfonyl]cyclohex-1-ene-1-carboxylate], the Mortality rate ([4]; high-dosage group) is listed as “a tendency to reduce the mortality rate was observed among the high-dosage group, it was of no statistic significance; also recorded: a tendency to reduce the mortality rate was observed in the high-dosage group, it was of no statistic significance”, the “Serum IL-6 level” value [4] is listed as “failed to suppress the serum IL-6 level” and the “Efficacy when sCD14-ST concentration is used as index” value [5] is listed as “reveals improvement in the efficacy”. For the same molecule, the “Efficacy when patient selection standards use sCD14-ST concentration as index” value [6] was “improvement in Resatorvid efficacy can be observed”, the “Recovery in leukocyte count, first-hour versus third-hour administered group” value ([7]; 10 mg/kg i.v.) was “observed more significantly in the first-hour administered group than in the third-hour administered group” and the “Survival rate versus control group” value ([7]; 10 mg/kg i.v. at 1 and 5 hours or 3 and 7 hours after surgery, checked until 48 hours) was “survival rates improved in the first-hour Resatorvid-administered group and the third-hour Resatorvid-administered group over the control group”. The Platelet count ([7]; 12th hour after surgery, 10 mg/kg i.v.) was “showed a tendency to recover at the 12th hour after surgery, but failed to recover”, the “Leukocyte count versus control group” value ([7]; 24th hour after surgery, 10 mg/kg i.v.) was “showed recovery in leukocyte count as compared with the control group” and the “Survival rate, first-hour versus third-hour administered group” value ([7]; first 24 hours, 10 mg/kg i.v.) was “the first-hour administered group showed a higher survival rate than the third-hour administered group”.

B1: F1024S-D2(3): modified form of an anti-CD14 antibody in which the domain 2 of urinary trypsin inhibitor (UTI) is bound to the anti-CD14 antibody; fusion protein (antibody)
heavy: QIQLVQSGPELKKPGESVKISCKASGYTFTDYAMNWVKQAPGNGLKWMGWINTQTGKPTYADDFKQRFVFSLETSASTAYLQINNLNIEDTATYFCTRSTFYYSSYIYGWYFDFWGPGTMVTVSSASTKGPSVFPLAPCSRSTSESTAALGCLVKDYFPEPVTVSWNSGALTSGVHTFPAVLQSSGLYSLSSVVTVPSSSLGTKTYTCNVDHKPSNTKVDKRVESKYGPPGPSGPAPEFLGGPSVFLFPPKPKDTLMISRTPEVTCVVVDVSQEDPEVQFNWYVDGVEVHNAKTKPREEQFNSTYRVVSVLTVLHQDWLNGKEYKCKVSNKGLPSSIEKTISKAKGQPREPQVYTLPPSQEEMTKNQVSLTCLVKGFYPSDIAVEWESNGQPENNYKTTPPVLDSDGSFFLYSRLTVDKSRWQEGNVFSCSVMHEALHNHYTQKSLSLSLGKGSTVAACNLPIVSGPCRAFIKLWAFDAVKGKCVLFPYGGCQGNGNKFDSEKECREYCGVPGDGDEELLRFSN
light: DIVMTQSPTSISISVGERVTMNCKASQNVGSNVDWYQQKTGQSPKLLIYKASNRYTGVPDRFTGSGSGTDFTFTISNMQAVDLAVYYCMQSNTNPPWTFGGGTKLELKRTVAAPSVFIFPPSDEQLKSGTASVVCLLNNFYPREAKVQWKVDNALQSGNSQESVTEQDSKDSTYSLSSTLTLSKADYEKHKVYACEVTHQGLSSPVTKSFNRGEC
For B1, the Survival rate [8] is given as “improve the survival rate of a cecal ligation and puncture-induced peritonitis rabbit model”, the “Production of IL-6 induced by LPS stimulation” value [9] is given as “suppress production of IL-6” and the Survival rate [10] is given as “improve the survival rate of an LPS-induced sepsis rabbit model”. For the same molecule, the Survival time ([11]; Severity Especially high) was 7 h, the Survival time ([11]; Severity High) was 23 h and the Survival time ([11]; Severity Medium) was 47 h. For the same molecule, the “Effect on survival time versus control cases” value ([11]; especially high severity cases) was “no difference in survival time was observed” and the “Effect on survival time versus control cases” value ([11]; medium to high severity cases, administered when blood sCD14-ST at least twice the normal value) was “an effect of prolonging the survival time was observed”.
